From ChEMBL document CHEMBL1139256, “Identification of pharmacophore model, synthesis and biological evaluation of N-phenyl-1-arylamide and N-phenylbenzenesulfonamide derivatives as BACE 1 inhibitors” (Bioorg Med Chem, 2008)
*1 amine or outer side, *2 acyl side, *3 side chain or, on linkers, in order; H or OH if unused. Where a SMILES comes first, the peptide text is derived from it. [ ]: non-standard residue; d: D form. LeuΨ(S-CHOHCH2)Ala = CC(C)C[C@H](N[*:1])[C@@H](O)C[C@@H](C)C(=O)[*:2]

How the values were obtained:
Beta-secretase 1 [1] = target: T1, Beta-secretase 1 (Homo sapiens, UniProt P56817); assay: Inhibition of BACE1 at 20 ug/ml by FRET assay
T1 sequence (P56817 whole entry): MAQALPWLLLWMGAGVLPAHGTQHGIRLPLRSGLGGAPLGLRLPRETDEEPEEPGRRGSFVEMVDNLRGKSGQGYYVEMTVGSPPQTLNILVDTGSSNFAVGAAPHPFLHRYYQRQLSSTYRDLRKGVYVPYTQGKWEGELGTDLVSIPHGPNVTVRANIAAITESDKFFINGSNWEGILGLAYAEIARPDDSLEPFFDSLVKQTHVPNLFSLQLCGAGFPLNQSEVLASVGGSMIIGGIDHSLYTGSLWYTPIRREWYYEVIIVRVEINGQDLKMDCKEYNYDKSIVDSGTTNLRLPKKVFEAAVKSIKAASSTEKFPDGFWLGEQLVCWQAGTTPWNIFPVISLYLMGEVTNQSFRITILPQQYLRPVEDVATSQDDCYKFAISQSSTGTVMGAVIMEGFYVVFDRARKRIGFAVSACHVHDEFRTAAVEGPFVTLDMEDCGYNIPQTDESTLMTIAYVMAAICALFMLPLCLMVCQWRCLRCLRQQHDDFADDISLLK

Beta-secretase 1 [2] = target: T1, Beta-secretase 1; conditions: 2 ug/ml
Description: Inhibition of BACE1 at 2 ug/ml by FRET assay

Beta-secretase 1 [3] = target: T1, Beta-secretase 1; assay: Inhibition of BACE1 by FRET assay

Row | inhibition (Beta-secretase 1 [1]) | inhibition (Beta-secretase 1 [2]) | IC50 (Beta-secretase 1 [3]) | Structure (SMILES)
1 | 39.4% | – | – | O=C(Cc1cccc2ccccc12)Nc1cc(Br)ccc1OCCN1CCOCC1
2 | 13.8% | – | – | O=C(CCc1ccccc1)Nc1cc(Br)ccc1OCCN1CCOCC1
3 | 14.3% | – | – | O=S(=O)(Nc1cc(Br)ccc1OCCN1CCOCC1)c1ccc(Br)cc1
4 | – | 102% | – | CC(C)C[C@H](NC(=O)[C@H](CC(N)=O)NC(=O)[C@@H](NC(=O)[C@@H](N)CCC(=O)O)C(C)C)[C@@H](O)C[C@@H](C)C(=O)N[C@@H](C)C(=O)N[C@@H](CCC(=O)O)C(=O)N[C@@H](Cc1ccccc1)C(=O)O (H-EVN[LeuΨ(S-CHOHCH2)Ala]AEF-OH)
5 | 34.8% | – | – | CCOC(=O)C1CCN(CCOc2ccc(Br)cc2NC(=O)Cc2cccc3ccccc23)CC1
6 | 64.5% | – | 47.1 µM | O=C(Cc1cccc2ccccc12)Nc1cc(Br)ccc1OCCNC1CCCCC1
7 | 41.8% | – | – | CN(CCOc1ccc(Br)cc1NC(=O)Cc1cccc2ccccc12)Cc1ccccc1
8 | 24.7% | – | – | CCOC(=O)CN(C)CCOc1ccc(Br)cc1NC(=O)Cc1cccc2ccccc12
9 | 15.1% | – | – | O=C(Cc1cccc2ccccc12)Nc1cc(Br)ccc1OCCNCCCO
10 | 83.7% | – | 18.3 µM | NCCCCCCNCCOc1ccc(Br)cc1NC(=O)Cc1cccc2ccccc12
